{"source": "patent US20100104980A1", "about": "“LITHOGRAPHIC PRINTING PLATE PRECURSOR” (Agfa Graphics NV, priority 2007, published 2010)", "key": {"[1]": {"assay": "MetaStable Zone Width (MSZW) in 1-methoxy-2-propanol at 80° C., Lasentec FBRM technology", "type": "physicochemical", "conditions": "cooling and heating rate 0.2° C./min, from curve fitting", "experimental": "(§1) In the present application the MetaStable Zone of solutions of a sensitizer and/or a mixture of sensitizers were measured with Lasentec® FBRM® technology, from Mettler Toledo. In this experimental set up, a Lasentec® Probe is used in an automated Labmax® 2 litre reactor, both from Mettler Toledo. In a typical investigation, the solution is cooled at a controlled rate (° C./min.) At a certain temperature, the probe detects nucleation and holds the solution at that temperature as crystallization proceeds. After completion of the crystallization, the solution is subjected to a controlled heating (° C./min) until the probe detects the temperature at which dissolution of the crystals is nearly completed. Again, the solution is kept at that temperature until all crystals are dissolved. Such cooling and heating cycli are performed for different concentrations of the solution. All actions, i.e. performing the cooling and heating cycli, dilution of the solution, storage and analysis of the data are performed automatically by the experimental set up used.\n(§2) All investigations were performed on a sensitizer solution in 1-methoxy-2-propanol, since this typical coating solvent has a high boiling point (120° C.) and, as described above, will probably determine the crystallization behaviour at the end of the drying step of the photopolymerizable coating.\n(§3) The obtained data for each investigated solution of a sensitizer or a mixture of sensitizers may be represented as in FIG. 1. In FIG. 1, curve S is the solubility curve and curve N the nucleation curve. These curves border three regions characterizing the solution as a function of concentration and temperature: the UnSaturated Zone (USZ), a stable zone wherein the solution is unsaturated (sensitizer is completely dissolved); an Unstable Zone (UZ), wherein crystallization occurs; and a MetaStable Zone (MSZ) wherein the solution is supersaturated but wherein no crystallization occurs.\nThe MetaStable Zone Width (MSZW), expressed in ° C., at a given temperature, is the width of the Metastable Zone (MSZ) starting at the curve S at that given temperature. Since the MSZW is dependent on the cooling and heating rates, these rates were identical for all solutions investigated, i.e. 0.2° C./min. If the cooling rate would be indefinitely slow, the nucleation curve would practically coincide with the solubility curve and no MetaStable Zone would be detected.\n(§4) The suspension was stirred at 350 rpm and heated until complete dissolution of all sensitizers. All following actions were automatically performed by the experimental set up used. The experimental set up constituted a Labmax® 2 liter automated lab reactor equipped with Lasentec® Probe and the Lasentec® D600 hardware, all distributed by Mettler Toledo. The Lasentec® FBRM® technology enables the detection of nucleation and dissolution temperatures of a solution. FBRM® stands for Focused Beam Reflectance Measurement. The Lasentec® probe measures the number and the average diameter of the particles in the suspension (the laser of the Lasentec® probe continuously scans, with a linear scan speed of 2 m/s, a region of the suspension; the laser light is reflected by the particles residing in the scanned region).\nThe 40 percent by weight solution was cooled at 0.2° C./minute. […]"}, "[2]": {"assay": "Solubility in methylethylketone (MEK) measured at 20° C.", "type": "physicochemical", "experimental": "The symmetric sensitizers SS-01 to SS-06 are given in Table 1 together with their solubility in methylethylketone (S (MEK)) measured at 20° C."}, "[3]": {"assay": "Solubility in 1-methoxy-2-propanol (MOP) at 80° C., Lasentec FBRM technology", "type": "physicochemical", "conditions": "solubility in 1-methoxy-2-propanol at 80° C.; from curve fitting of experimental data", "experimental": "as §1, §2, §3, §4\nThe 40 percent by weight solution was cooled at 0.2° C./minute. Upon detection of nucleation, i.e. when the Lasentec® FBRM® technology detects more than 800 particles with an average diameter of 1 to 20 μm, the so called ‘fines’ region, the mixture was kept at the attained temperature during 0.5 hour as crystallization proceeds. Upon completion of the crystallization, the mixture was heated at 0.2° C./minute. Upon detection of solubilization, i.e. when the Lasentec® FBRM® technology detects less than 30 particles with an average particle diameter of 20 to 50 μm, the so called ‘coarses’ region, the temperature was kept at the attained temperature during 0.5 hour until completion of the solubilization. […]"}}}
{"smiles": "CCC(CC)Oc1c(OC)cc(/C=C/c2ccc(/C=C/c3cc(OC)c(OC(CC)CC)c(OC)c3)cc2)cc1OC", "note": "[SS-05]", "values": [{"measurement": "MSZW 80° C.", "setting": "[1]", "result": 3.6, "unit": "°C"}, {"measurement": "S (MEK)", "setting": "[2]", "result": 9.64, "unit": "wt %"}, {"measurement": "S (MOP) 80° C.", "setting": "[3]", "result": 6.14, "unit": "wt. %"}]}
{"smiles": "CCC(C)Oc1c(OC)cc(/C=C/c2ccc(/C=C/c3cc(OC)c(OC(C)CC)c(OC)c3)cc2)cc1OC", "note": "(stereo not drawn) [SS-04]", "values": [{"measurement": "MSZW 80° C.", "setting": "[1]", "result": 1.6, "unit": "°C"}, {"measurement": "S (MEK)", "setting": "[2]", "result": 8.71, "unit": "wt %"}, {"measurement": "S (MOP) 80° C.", "setting": "[3]", "result": 22.76, "unit": "wt. %"}]}
{"smiles": "CCCOc1c(OC)cc(/C=C/c2ccc(/C=C/c3cc(OC)c(OCCC)c(OC)c3)cc2)cc1OC", "note": "[SS-02]", "values": [{"measurement": "MSZW 80° C.", "setting": "[1]", "result": 4.5, "unit": "°C"}, {"measurement": "S (MEK)", "setting": "[2]", "result": 4.75, "unit": "wt %"}, {"measurement": "S (MOP) 80° C.", "setting": "[3]", "result": 10.78, "unit": "wt. %"}]}
{"smiles": "CCC(C)Oc1c(OC)cc(/C=C/c2ccc(/C=C/c3cc(OC)c(OC4CCCC4)c(OC)c3)cc2)cc1OC", "note": "(stereo not drawn) [AS-04]", "values": [{"measurement": "melting point", "result": 153, "unit": "°C"}]}
{"smiles": "CCC(C)Oc1c(OC)cc(/C=C/c2ccc(/C=C/c3cc(OC)c(OCCO)c(OC)c3)cc2)cc1OC", "note": "(stereo not drawn) [AS-05]", "values": [{"measurement": "melting point", "result": 137, "unit": "°C"}]}
{"smiles": "CCC(C)Oc1c(OC)cc(/C=C/c2ccc(/C=C/c3cc(OC)c(OC(CC)CC)c(OC)c3)cc2)cc1OC", "note": "(stereo not drawn) [AS-02]", "values": [{"measurement": "melting point", "result": 155, "unit": "°C"}]}
{"smiles": "CCCCC(CC)COc1c(OC)cc(/C=C/c2ccc(/C=C/c3cc(OC)c(OC(C)CC)c(OC)c3)cc2)cc1OC", "note": "(stereo not drawn) [AS-01]", "values": [{"measurement": "melting point", "result": 81, "unit": "°C"}]}
{"smiles": "COc1cc(/C=C/c2ccc(/C=C/c3cc(OC)c(OC(C)C)c(OC)c3)cc2)cc(OC)c1OC(C)C", "note": "[SS-03]", "values": [{"measurement": "MSZW 80° C.", "setting": "[1]", "result": 1.7, "unit": "°C"}, {"measurement": "S (MEK)", "setting": "[2]", "result": 0.45, "unit": "wt %"}, {"measurement": "S (MOP) 80° C.", "setting": "[3]", "result": 7.31, "unit": "wt. %"}]}
{"smiles": "CCCCC(CC)COc1c(OC)cc(/C=C/c2ccc(/C=C/c3cc(OC)c(OCC(CC)CCCC)c(OC)c3)cc2)cc1OC", "note": "(stereo not drawn) [SS-06]", "values": [{"measurement": "S (MEK)", "setting": "[2]", "result": 23.21, "unit": "wt %"}]}
{"smiles": "CCC(C)Oc1c(OC)cc(/C=C/c2ccc(/C=C/c3cc(OC)c(OC4CCCCC4)c(OC)c3)cc2)cc1OC", "note": "(stereo not drawn) [AS-03]", "values": [{"measurement": "melting point", "result": 165, "unit": "°C"}]}
{"smiles": "COc1cc(/C=C/c2ccc(/C=C/c3cc(OC)c(OC)c(OC)c3)cc2)cc(OC)c1OC", "note": "[SS-01]", "values": [{"measurement": "MSZW 80° C.", "setting": "[1]", "result": 4.5, "unit": "°C"}, {"measurement": "S (MEK)", "setting": "[2]", "result": 0.89, "unit": "wt %"}, {"measurement": "S (MOP) 80° C.", "setting": "[3]", "result": 4.66, "unit": "wt. %"}]}
